{"source": "ChEMBL document CHEMBL4118205", "about": "“Design, synthesis and biological evaluation of artemisinin derivatives containing fluorine atoms as anticancer agents” (Bioorg Med Chem Lett, 2018)", "assay_type_in_all_cases": "functional", "key": {"[1]": {"system": "MCF7", "assay": "Induction of apoptosis in human MCF7 cells assessed as necrotic cells at 1 uM after 48 hrs by Annexin-V FITC/propidium iodide staining based flow cytometry (reference value: 4.69%)"}, "[2]": {"system": "MCF7", "assay": "Induction of apoptosis in human MCF7 cells assessed as late apoptotic cells at 2.5 uM after 48 hrs by Annexin-V FITC/propidium iodide staining based flow cytometry (reference value: 6.22%)"}, "[3]": {"system": "MCF7", "assay": "Induction of apoptosis in human MCF7 cells assessed as necrotic cells at 10 uM after 48 hrs by Annexin-V FITC/propidium iodide staining based flow cytometry (reference value: 4.69%)"}, "[4]": {"system": "MCF7", "assay": "Induction of apoptosis in human MCF7 cells assessed as viable cells at 10 uM after 48 hrs by Annexin-V FITC/propidium iodide staining based flow cytometry (reference value: 88.59%)", "details": "MCF7, 48 h, read-out: Activity"}, "[5]": {"system": "MCF7", "assay": "Cell cycle arrest in human MCF7 cells assessed as accumulation at S phase at 0.5 uM after 48 hrs by propidium iodide staining based flow cytometry (reference value: 41.55%)"}, "[6]": {"system": "MCF7", "assay": "Cell cycle arrest in human MCF7 cells assessed as accumulation at G2 phase at 0.5 uM after 48 hrs by propidium iodide staining based flow cytometry (reference value: 13.24%)"}, "[7]": {"system": "MCF7", "assay": "Cell cycle arrest in human MCF7 cells assessed as accumulation at G2 phase at 2.5 uM after 48 hrs by propidium iodide staining based flow cytometry (reference value: 13.24%)"}, "[8]": {"system": "MCF7", "assay": "Cell cycle arrest in human MCF7 cells assessed as accumulation at G2 phase at 5 uM after 48 hrs by propidium iodide staining based flow cytometry (reference value: 13.24%)"}, "[9]": {"system": "MCF7", "assay": "Cell cycle arrest in human MCF7 cells assessed as accumulation at G2 phase at 10 uM after 48 hrs by propidium iodide staining based flow cytometry (reference value: 13.24%)"}, "[10]": {"system": "MCF7", "assay": "Cell cycle arrest in human MCF7 cells assessed as accumulation at G1 phase after 48 hrs by propidium iodide staining based flow cytometry"}}, "data": [{"smiles": "C[C@H]1[C@H](N2CCN(C(=O)Nc3ccc(OC(F)(F)F)cc3)CC2)O[C@@H]2O[C@@]3(C)CC[C@H]4[C@H](C)CC[C@@H]1[C@@]24OO3", "values": [{"measurement": "Activity", "setting": "[1]", "result": 8.1, "unit": "%"}, {"measurement": "Activity", "setting": "[2]", "result": 19.17, "unit": "%"}, {"measurement": "Activity", "setting": "[3]", "result": 17.18, "unit": "%"}, {"measurement": "viability at 10 µM", "setting": "[4]", "result": 28.7, "unit": "%"}, {"measurement": "Activity", "setting": "[5]", "result": 39.72, "unit": "%"}, {"measurement": "Activity", "setting": "[6]", "result": 12.33, "unit": "%"}, {"measurement": "Activity", "setting": "[7]", "result": 9.18, "unit": "%"}, {"measurement": "Activity", "setting": "[8]", "result": 7.83, "unit": "%"}, {"measurement": "Activity", "setting": "[9]", "result": 7.3, "unit": "%"}, {"measurement": "Activity", "setting": "[10]", "result": "Dose-dependent effect"}]}]}
